The test system of the assay is conscious dogs. The experiment in a line: one-hour infusion of atriopeptin 24 in conscious dogs, renal hemodynamics and function, before and after α1-adrenergic receptor blockade. It is filed as in vivo, dog. Particulars: prazosin 1 mg/kg 40 minutes prior to one-hour atriopeptin 24 infusion.

“Also recorded” adds a separate entry of the source.

Protocol: In this example, I first infused conscious dogs for one hour with atriopeptin 24 and measured the effects on renal hemodynamics and function. At least one week later, I treated the same dogs with the α1 -adrenergic blocking agent, prazosin, 40 minutes prior to a one-hour atriopeptin 24 infusion.
The experiments were conducted using the following techniques and devices: female mongrel dogs were instrumented using sterile surgical techniques under sodium pentobarbital anesthesia (25 mg/kg). To measure renal blood flow, a Doppler ultrasonic flow transducer (Parks Electronics) was placed around the left renal artery. […]
Arterial pressure was recorded using the implanted catheter attached to a Statham P23Db strain gauge transducer. Renal blood flow was measured using an ultrasonic flowmeter (Model 806A, Parks Electronics) and the implanted Doppler flow transducer. Phasic arterial pressure and renal blood flow were recorded on magnetic tape (Bell and Howell 3700B) and played back on a direct writing oscillograph (Gould-Brush 2800S). […] Heart rate was calculated using a cardiotachometer (Beckman Model 80574) from the pressure pulse interval.
To measure renal function, urine samples were taken from the dogs, urine volume was measured and the concentration of urine and plasma sodium (Na) and potassium (K) was assayed using a flame photometer (Instrumentation Laboratories, Model 343). […]

Consider `COc1cc2nc(N3CCN(C(=O)c4ccco4)CC3)nc(N)c2cc1OC` [prazosin], for which the “effect of α1-adrenergic blockade on renal vasodilation produced by atriopeptin 24” value was “renal blood flow remained elevated for the duration of the atriopeptin 24 infusion; also recorded: caused a sustained renal vasodilation”.

The values are drawn from patent US4749686A, “Combinations of renal vasodilators and α1 -adrenergic or ganglionic blocking agents and methods for treating diseases” (New York Medical College, priority 1986, dated 1988).
